# Source: PubChem BioAssay AID1919001 (Molecular Pharmacology Branch, DTP, NCI, 2023)
# Tested on: 699152-130-R-J1-PDC complex spheroid growth
# Assay: Anticancer human tumor 699152-130-R-J1-PDC patient-derived pancreatic carcinoma cell line growth inhibition [AhR]
# Conditions: for IC50: curve of first compound; for viability, T/C: stronger effect = lower value
# Procedure, shortened: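 Agents were dosed in half-log steps down from roughly clinical Cmax, or from 10 microM where Cmax was unknown, alone and with AhR antagonists. Read-out: percent test/control growth of tumor spheroids containing HUVEC and MSC stromal cells.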
# [1] = second compound 0.1 µM, first compound 0.00316 µM
# [2] = second compound 0.1 µM, first compound 0.01 µM
# [3] = second compound 0.1 µM, first compound 0.0316 µM
# [4] = second compound 0.1 µM, first compound 0.1 µM
# [5] = second compound 0.316 µM, first compound 0.00316 µM
# [6] = second compound 0.316 µM, first compound 0.01 µM
# [7] = second compound 0.316 µM, first compound 0.0316 µM
# [8] = second compound 0.316 µM, first compound 0.1 µM
# [9] = second compound 1 µM, first compound 0.00316 µM
# [10] = second compound 1 µM, first compound 0.01 µM
# [11] = second compound 1 µM, first compound 0.0316 µM
# [12] = second compound 1 µM, first compound 0.1 µM
# [13] = second compound 3.16 µM, first compound 0.00316 µM
# [14] = second compound 3.16 µM, first compound 0.01 µM
# [15] = second compound 3.16 µM, first compound 0.0316 µM
# [16] = second compound 3.16 µM, first compound 0.1 µM
# [17] = second compound 10 µM, first compound 0.00316 µM
# [18] = second compound 10 µM, first compound 0.01 µM
# [19] = second compound 10 µM, first compound 0.0316 µM
# [20] = second compound 10 µM, first compound 0.1 µM
# [21] = second compound 0.1 µM, first compound 0.316 µM
# [22] = second compound 0.1 µM, first compound 1 µM
# [23] = second compound 0.1 µM, first compound 3.16 µM
# [24] = second compound 0.1 µM, first compound 10 µM
# [25] = second compound 0.316 µM, first compound 0.316 µM
# [26] = second compound 0.316 µM, first compound 1 µM
# [27] = second compound 0.316 µM, first compound 3.16 µM
# [28] = second compound 0.316 µM, first compound 10 µM
# [29] = second compound 1 µM, first compound 0.316 µM
# [30] = second compound 1 µM, first compound 1 µM
# [31] = second compound 1 µM, first compound 3.16 µM
# [32] = second compound 1 µM, first compound 10 µM
# [33] = second compound 3.16 µM, first compound 0.316 µM
# [34] = second compound 3.16 µM, first compound 1 µM
# [35] = second compound 3.16 µM, first compound 3.16 µM
# [36] = second compound 3.16 µM, first compound 10 µM
# [37] = second compound 10 µM, first compound 0.316 µM
# [38] = second compound 10 µM, first compound 1 µM
# [39] = second compound 10 µM, first compound 3.16 µM
# [40] = second compound 10 µM, first compound 10 µM
# 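Further: compound exposure lasted 7 days after spheroids had grown for 3 days.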
SMILES,IC50 (second compound 0.1 µM),IC50 (second compound 0.316 µM),IC50 (second compound 1 µM),IC50 (second compound 3.16 µM),IC50 (second compound 10 µM),"viability, T/C [3]","viability, T/C [4]","viability, T/C [7]","viability, T/C [8]","viability, T/C [11]","viability, T/C [12]","viability, T/C [15]","viability, T/C [16]","viability, T/C [19]","viability, T/C [20]","viability, T/C [21]","viability, T/C [22]","viability, T/C [25]","viability, T/C [26]","viability, T/C [29]",further results
CC[C@@]1(O)C(=O)OCc2c1cc1n(c2=O)Cc2cc3c(CN(C)C)c(O)ccc3nc2-1 + Cc1cncc(-c2nc(NCCc3c[nH]c4ccccc34)c3ncn(C(C)C)c3n2)c1,> 100 nM,> 100 nM,> 100 nM,> 100 nM,< 0.316 nM,80.7%,69.6%,80.3%,66.5%,83.9%,62.9%,64%,54.7%,11.1%,14.1%,,,,,,"viability, T/C (second compound 0.1 µM, first compound 0.000316 µM): 102%; viability, T/C (second compound 0.1 µM, first compound 0.001 µM): 98.5%; viability, T/C [1]: 100%; viability, T/C [2]: 101%; viability, T/C (second compound 0.316 µM, first compound 0.000316 µM): 101%; viability, T/C (second compound 0.316 µM, first compound 0.001 µM): 98.4%; viability, T/C [5]: 98%; viability, T/C [6]: 93.9%; viability, T/C (second compound 1 µM, first compound 0.000316 µM): 105%; viability, T/C (second compound 1 µM, first compound 0.001 µM): 107%; viability, T/C [9]: 105%; viability, T/C [10]: 99.4%; viability, T/C (second compound 3.16 µM, first compound 0.000316 µM): 112%; viability, T/C (second compound 3.16 µM, first compound 0.001 µM): 92.8%; viability, T/C [13]: 95%; viability, T/C [14]: 93.7%; viability, T/C (second compound 10 µM, first compound 0.000316 µM): 12.6%; viability, T/C (second compound 10 µM, first compound 0.001 µM): 11.5%; viability, T/C [17]: 10.6%; viability, T/C [18]: 12.1%"
COc1cc(C2c3cc4c(cc3C(OC3OC5COC(C)OC5C(O)C3O)C3COC(=O)C23)OCO4)cc(OC)c1O (stereo not given) + Cc1cncc(-c2nc(NCCc3c[nH]c4ccccc34)c3ncn(C(C)C)c3n2)c1,> 10000 nM,7660 nM,9210 nM,2700 nM,< 31.6 nM,106%,98%,104%,89.5%,99.6%,97.2%,106%,91.3%,0.93%,1.13%,70.1%,70.3%,80.2%,67.4%,74.9%,"viability, T/C [23]: 58%; viability, T/C [24]: 52.6%; viability, T/C [27]: 58.9%; viability, T/C [28]: 46.8%; viability, T/C [30]: 77.5%; viability, T/C [31]: 63.6%; viability, T/C [32]: 47.4%; viability, T/C [33]: 70.1%; viability, T/C [34]: 60.6%; viability, T/C [35]: 48.5%; viability, T/C [36]: 41.7%; viability, T/C [37]: 1.96%; viability, T/C [38]: 1.2%; viability, T/C [39]: 1.07%; viability, T/C [40]: 4.92%"
COc1cccc2c1C(=O)c1c(O)c3c(c(O)c1C2=O)CC(O)(C(=O)CO)CC3OC1CC(N)C(O)C(C)O1 (stereo not given) + Cc1cncc(-c2nc(NCCc3c[nH]c4ccccc34)c3ncn(C(C)C)c3n2)c1,349 nM,342 nM,356 nM,117 nM,< 31.6 nM,67.3%,64.1%,62.9%,58.7%,70.8%,71.5%,51.5%,53.3%,14.6%,16.3%,51.4%,25.4%,51.6%,22.9%,52.5%,"viability, T/C [23]: 2.77%; viability, T/C [24]: 7.37%; viability, T/C [27]: 2.99%; viability, T/C [28]: 7.49%; viability, T/C [30]: 20.9%; viability, T/C [31]: 3.69%; viability, T/C [32]: 6.86%; viability, T/C [33]: 34.7%; viability, T/C [34]: 5.89%; viability, T/C [35]: 4.86%; viability, T/C [36]: 7.43%; viability, T/C [37]: 14.2%; viability, T/C [38]: 1.29%; viability, T/C [39]: 5.06%; viability, T/C [40]: 5.36%"
Nc1ccn(C2OC(CO)C(O)C2(F)F)c(=O)n1 (stereo not given) + Cc1cncc(-c2nc(NCCc3c[nH]c4ccccc34)c3ncn(C(C)C)c3n2)c1,1240 nM,1300 nM,2510 nM,864 nM,< 31.6 nM,76.3%,69.2%,81.3%,63.6%,72.6%,67.9%,74.7%,71.1%,47.8%,50.9%,62.3%,49.4%,56.8%,56.1%,58.6%,"viability, T/C [23]: 46.6%; viability, T/C [24]: 42.8%; viability, T/C [27]: 45.3%; viability, T/C [28]: 40.6%; viability, T/C [30]: 53.8%; viability, T/C [31]: 50.5%; viability, T/C [32]: 43.8%; viability, T/C [33]: 55.6%; viability, T/C [34]: 50.8%; viability, T/C [35]: 45.4%; viability, T/C [36]: 49.8%; viability, T/C [37]: 40.5%; viability, T/C [38]: 46%; viability, T/C [39]: 39.4%; viability, T/C [40]: 35.5%"
Nc1ncn(C2CC(O)C(CO)O2)c(=O)n1 (stereo not given) + Cc1cncc(-c2nc(NCCc3c[nH]c4ccccc34)c3ncn(C(C)C)c3n2)c1,> 1000 nM,> 1000 nM,> 1000 nM,> 1000 nM,< 3.16 nM,90.4%,98.4%,104%,86.5%,99.6%,97.9%,111%,100%,0.78%,0.82%,85.4%,87.8%,96.3%,97.2%,110%,"viability, T/C [1]: 109%; viability, T/C [2]: 88%; viability, T/C [5]: 99.3%; viability, T/C [6]: 90.8%; viability, T/C [9]: 106%; viability, T/C [10]: 115%; viability, T/C [30]: 92.2%; viability, T/C [13]: 95%; viability, T/C [14]: 87.1%; viability, T/C [33]: 97.6%; viability, T/C [34]: 93.9%; viability, T/C [17]: 0.96%; viability, T/C [18]: 2.37%; viability, T/C [37]: 1.11%; viability, T/C [38]: 5.98%"
